ChEMBL document CHEMBL1125704, “Novel time-dependent inhibitors of human placental aromatase” (J Med Chem, 1991)

Biological target: T1, Aromatase (Homo sapiens, UniProt P11511)
T1 sequence (P11511 whole entry): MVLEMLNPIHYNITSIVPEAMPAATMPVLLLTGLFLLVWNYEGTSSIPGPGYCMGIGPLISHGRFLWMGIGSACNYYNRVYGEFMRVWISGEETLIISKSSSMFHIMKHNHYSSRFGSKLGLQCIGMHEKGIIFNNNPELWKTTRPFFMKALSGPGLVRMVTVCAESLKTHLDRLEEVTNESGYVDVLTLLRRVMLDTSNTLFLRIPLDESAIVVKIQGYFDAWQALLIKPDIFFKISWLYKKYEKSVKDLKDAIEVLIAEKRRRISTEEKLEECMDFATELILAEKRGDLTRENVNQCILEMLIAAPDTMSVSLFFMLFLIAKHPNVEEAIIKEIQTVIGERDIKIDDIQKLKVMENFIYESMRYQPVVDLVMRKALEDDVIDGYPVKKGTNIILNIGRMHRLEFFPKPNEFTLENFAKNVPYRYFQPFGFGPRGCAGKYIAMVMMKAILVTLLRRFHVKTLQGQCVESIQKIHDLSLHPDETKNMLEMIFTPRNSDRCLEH
Assay: Inhibition of binding to human Placental Cytochrome P450 19A1

SMILES	Ki
C[C@]12CCC3C(CCC4=CC(=O)[C@H]5C[C@H](O)[C@]43C5)C1CCC2=O (single isomer, unassigned)	0.926 µM
C[C@]12CCC3C(CCC4=CC(=O)CC[C@@]43C(O)CBr)C1CCC2=O (single isomer, unassigned; 11a)	0.027 µM
C[C@]12CCC3C(CCC4=CC(=O)[C@H]5C[C@@H](O)[C@]43C5)C1CCC2=O (single isomer, unassigned)	0.87 µM
C[C@]12CCC3C(CCC4=CC(=O)[C@H]5CC[C@]43C5)C1CCC2=O (some centres undefined)	0.07 µM
